Reference: patent US20220378923A1, “BET DEGRADER” (KYOWA KIRIN CO., LTD., priority 2019, published 2022)
Like-named read-outs stand apart in the source and are kept apart here.

Key:
SU-DHL-4 cells = assay: Inhibitory effect on cell viability in SU-DHL-4 cell line (Test Example 1); format: cell-based, human; conditions: 72 hours; for IC50: SU-DHL-4 (wild type) cells, calculated using the measurement results of test example 1, read-out: SU-DHL-4 WT IC50; for IC90: SU-DHL-4 cells, Cell Counting Kit-8, concentration showing 90% inhibition of cell viability, read-out: SU-DHL-4 Cell Viability Inhibition Rate IC90
In short: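 SU-DHL-4 cells were grown at 37° C. under 5% CO2 in RPMI1640 with 10 vol % heat-inactivated FBS plus penicillin/streptomycin, seeded and precultured for 18 to 25 hours, then exposed to test compound at 0.1 vol % DMSO for 72 hours. Viability was read with Cell Counting Kit-8 by absorbance at 450 nm.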

[1] = system: MYC mRNA expression in SU-DHL-4 cells; assay: Suppressive effect on MYC mRNA expression (Test Example 2); format: cell-based, human; conditions: test compound 100 nmol/L, 6 hours, qRT-PCR corrected by ACTB, GAPDH; for inhibition at 0.1 µM: Homo sapiens, HPRT1, read-out: Suppression Rate of MYC mRNA Expression (%); for Suppression Rate of MYC mRNA Expression (%): HPRT1
Procedure: The cells were passaged twice a week at a volume of 20-40 mL so as to maintain a cell concentration of 1×10^6 cells/mL or less. The cultured SU-DHL-4 cells were seeded at 6×10^5 cells/well in a transparent 6-well plate (Code No. 140675, Thermo Fisher Scientific). After seeding, the cells were precultured at 37° C. in a carbon dioxide gas incubator for 18 to 25 hours. […] At this time, the final concentration of DMSO was adjusted to be 0.1 vol %. After adding the test compound, the cells were cultured at 37° C. in a carbon dioxide gas incubator for 6 hours. Then, the cells were collected by centrifugation and used for extraction of mRNA. mRNA extraction from cells was performed using Maxwell® 16 LEV simplyRNA Purification Kits (Code No. AS1270, Promega). The mRNA recovery protocol was performed according to the manufacturer's recommended protocol attached to the kit. […] The cDNA conversion was performed, according to the manufacturer's recommended protocol attached to the kit, in 0.020 mL of the reaction solution, and GeneAmp® PCR System 9700 (Applied Biosystems) was used. The cDNA-converted sample was diluted 10-fold by adding 0.180 mL of RNase Free Water (Code No. 10977-023, Thermo Fisher Scientific) and used for quantitative real-time polymerase chain reaction (qRT-PCR). For the calibration curve of qRT-PCR, 0.08 mL of RNase Free Water was added to a cDNA sample using DMSO as a test compound for 5-fold dilution. Further, two 5-fold dilutions were prepared stepwise, and these three samples were used as the calibration curve samples. The following reagents were used for qRT-PCR: TaqMan Gene Expression Assays, Inventoried (Primer probe: Code No. 4331182, Thermo Fisher Scientific, Assay ID: (i) MYC: Hs00153408_m1, (ii) ACTB: Hs01060665_g1, (iii) GAPDH: Hs04420697_g1, (iv) HPRT1: […] Universal PCR Master Mix, no AmpEraseR UNG (Master Mix: Code No. 4367846, Thermo Fisher Scientific). Primer probe (0.001 mL), Master Mix (0.010 mL), water (0.004 mL) and the diluted cDNA sample (0.005 mL) were mixed, and qRT-PCR analysis was performed. For qRT-PCR analysis, QuantStudio 7 Flex (Thermo Fisher Scientific) or 7500 Fast Real-Time PCR (Applied Biosystems) was used to measure in Fast mode and analyze. […] Corrected MYC expression=A/B • A: MYC expression level • B: Geometric mean of expression levels of ACTB, GAPDH and HPRT1 Using the corrected values, the suppression rate of MYC expression for the wells to which the test compound was not added was calculated by the following formula. […] Corrected MYC expression level in a well containing test compound • D: Corrected MYC expression level in a well to which test compound was not added

IC50 (SU-DHL-4 cells; Homo sapiens)	IC50 (SU-DHL-4 cells)	IC90 (SU-DHL-4 cells)	SMILES	inhibition at 0.1 µM [1]	Suppression Rate of MYC mRNA Expression (%) [1]
1.13 nM	–	–	CCC(=O)N1c2ccccc2[C@H](Nc2ccc(C(=O)NCCCNC(=O)c3ccc(N[C@@H]4C[C@H](C)N(C(=O)CC)c5ccccc54)cc3)cc2)C[C@@H]1C (relative stereo) [Compound 1a, N,N′-(Propane-1,3-diyl)bis(4-{[(2S*,4R*)-2-methyl-1-propionyl-1,2,3,4-tetrahydroquinolin-4-yl]amino}benzamide)]	96.7%	–
2.93 nM	–	–	CCC(=O)N1c2ccccc2[C@H](Nc2ccc(C(=O)NC3CCN(C(=O)c4ccc(N[C@@H]5C[C@H](C)N(C(=O)CC)c6ccccc65)cc4)CC3)cc2)C[C@@H]1C (relative stereo) [Compound 1c, 4-{[(2S*,4R*)-2-Methyl-1-propionyl-1,2,3,4-tetrahydroquinolin-4-yl]amino}-N-[1-(4-{[(2S*,4R*)-2-methyl-1-propionyl-1,2,3,4-tetrahydroquinolin-4-yl]amino}benzoyl)piperidin-4-yl]benzamide]	97.3%	–
0.09 nM	–	–	CCC(=O)N1c2ccccc2[C@H](Nc2ccc(NC(=O)CCNC(=O)c3ccc(N[C@@H]4C[C@H](C)N(C(=O)CC)c5ccccc54)cc3)cc2)C[C@@H]1C (relative stereo) [Compound 2f, 4-{[(2S,4R)-2-Methyl-1-propionyl-1,2,3,4-tetrahydroquinolin-4-yl]amino}-N-{3-[(4-{[(2S*,4R*)-2-methyl-1-propionyl-1,2,3,4-tetrahydroquinolin-4-yl]amino}phenyl)amino]-3-oxopropyl}benzamide]	98.6%	–
0.03 nM	–	–	CCC(=O)N1c2ccccc2[C@H](Nc2ccc(NC(=O)C3CN(C(=O)c4ccc(N[C@@H]5C[C@H](C)N(C(=O)CC)c6ccccc65)cc4)C3)cc2)C[C@@H]1C (relative stereo) [Compound 2h, 1-(4-{[(2S,4R)-2-Methyl-1-propionyl-1,2,3,4-tetrahydroquinolin-4-yl]amino}benzoyl)-N-(4-{[(2S*,4R*)-2-methyl-1-propionyl-1,2,3,4-tetrahydroquinolin-4-yl]amino}phenyl)azetidine-3-carboxamide]	98.2%	–
0.3 nM	–	–	CCC(=O)N1c2ccccc2[C@H](Nc2ccc(NC(=O)CCSc3ccc(N[C@@H]4C[C@H](C)N(C(=O)CC)c5ccccc54)cc3)cc2)C[C@@H]1C (relative stereo) [Compound 4e, N-(4-{[(2S*,4R*)-2-Methyl-1-propionyl-1,2,3,4-tetrahydroquinolin-4-yl]amino}phenyl)-3-[(4-{[(2S,4R)-2-methyl-1-propionyl-1,2,3,4-tetrahydroquinolin-4-yl]amino}phenyl)thio]propanamide]	98.4%	–
0.08 nM	–	–	CCC(=O)N1c2ccccc2[C@H](Nc2ccc(NC(=O)N3CCN(C(=O)c4ccc(N[C@@H]5C[C@H](C)N(C(=O)CC)c6ccccc65)cc4)CC3)cc2)C[C@@H]1C (relative stereo) [Compound 6m, 4-(4-(((2S,4R)-2-Methyl-1-propionyl-1,2,3,4-tetrahydroquinolin-4-yl)amino)benzoyl)-N-(4-(((2S*,4R*)-2-methyl-1-propionyl-1,2,3,4-tetrahydroquinolin-4-yl)amino)phenyl)piperazine-1-carboxamide]	97%	–
–	0.008 nM	0.01 nM	CCC(=O)N1c2ccccc2[C@H](Nc2ccc(NC(=O)C#CCNC(=O)C3CCC(N[C@@H]4C[C@H](C)N(C(=O)CC)c5ccccc54)CC3)cc2)C[C@@H]1C (relative stereo) [Compound 8g, (1R,4r)-4-(((2S*,4R*)-2-Methyl-1-propionyl-1,2,3,4-tetrahydroquinolin-4-yl)amino)-N-(4-((4-(((2S,4R)-2-methyl-1-propionyl-1,2,3,4-tetrahydroquinolin-4-yl)amino)phenyl)amino)-4-oxobut-2-yn-1-yl)cyclohexane-1-carboxamide]	–	96.6%
–	0.75 nM	0.93 nM	CCC(=O)N1c2ccccc2[C@H](N[C@H]2CC[C@H](NC(=O)C#CCNC(=O)[C@H]3CC[C@H](N[C@@H]4C[C@H](C)N(C(=O)CC)c5ccccc54)CC3)CC2)C[C@@H]1C (relative stereo) [Compound 9d, (1R,4R)-4-(((2S*,4R*)-2-Methyl-1-propionyl-1,2,3,4-tetrahydroquinolin-4-yl)amino)-N-(4-(((1R,4R)-4-(((2S,4R)-2-methyl-1-propionyl-1,2,3,4-tetrahydroquinolin-4-yl)amino)cyclohexyl)amino)-4-oxobut-2-yn-1-yl)cyclohexane-1-carboxamide]	–	98.0%
0.34 nM	–	–	CCC(=O)N1c2ccccc2[C@H](Nc2ccc(-n3cc(CNC(=O)N4CCC(N[C@@H]5C[C@H](C)N(C(=O)CC)c6ccccc65)CC4)nn3)cc2)C[C@@H]1C (relative stereo) [Compound 10b, 4-(((2S*,4R*)-2-Methyl-1-propionyl-1,2,3,4-tetrahydroquinolin-4-yl)amino)-N-((1-(4-(((2S,4R)-2-methyl-1-propionyl-1,2,3,4-tetrahydroquinolin-4-yl)amino)phenyl)-1H-1,2,3-triazol-4-yl)methyl)piperidine-1-carboxamide]	96.6%	–
–	–	0.27 nM	CCC(=O)N1c2ccccc2[C@H](Nc2ccc(C(=O)NCCCNC(=O)c3ccc(C4=N[C@@H](CC(=O)OC(C)(C)C)c5nnc(C)n5-c5sc(C)c(C)c54)cc3)cc2)C[C@@H]1C [Compound 1h, tert-Butyl 2-[(S)-2,3,9-trimethyl-4-(4-{[3-(4-{[(2S,4R)-2-methyl-1-propionyl-1,2,3,4-tetrahydroquinolin-4-yl]amino}benzamide)propyl]carbamoyl}phenyl)-6H-thieno[3,2-f][1,2,4]triazolo[4,3-a][1,4]diazepin-6-yl]acetate]	–	–
–	–	–	CCC(=O)N1c2ccccc2[C@H](Nc2ccc(NC(=O)CCCC(=O)Nc3ccc(N[C@@H]4C[C@H](C)N(C(=O)CC)c5ccccc54)cc3)cc2)C[C@@H]1C [Compound 6k, N^1,N^5-Bis(4-(((2S,4R)-2-methyl-1-propionyl-1,2,3,4-tetrahydroquinolin-4-yl)amino)phenyl)glutaramide]	97%	–
–	–	0.87 nM	CCC(=O)N1c2ccccc2[C@H](Nc2ccc(-n3cc(CCNC(=O)[C@H]4CC[C@H](N[C@@H]5C[C@H](C)N(C(=O)CC)c6ccccc65)CC4)nn3)cc2)C[C@@H]1C [Compound 8a, (1R,4r)-4-(((2S,4R)-2-Methyl-1-propionyl-1,2,3,4-tetrahydroquinolin-4-yl)amino)-N-(2-(1-(4-(((2S,4R)-2-methyl-1-propionyl-1,2,3,4-tetrahydroquinolin-4-yl)amino)phenyl)-1H-1,2,3-triazol-4-yl)ethyl)cyclohexane-1-carboxamide]	–	–

SMILES	IC50 (SU-DHL-4 cells; Homo sapiens)	IC50 (SU-DHL-4 cells)	IC90 (SU-DHL-4 cells)	inhibition at 0.1 µM [1]	Suppression Rate of MYC mRNA Expression (%) [1]
Cc1sc2c(c1C)C(c1ccc(C(=O)NCc3cn(-c4ccc(C5=N[C@@H](CC(=O)OC(C)(C)C)c6nnc(C)n6-c6sc(C)c(C)c65)cc4)nn3)cc1)=N[C@@H](CC(=O)OC(C)(C)C)c1nnc(C)n1-2 [Compound 3b, tert-Butyl 2-[(S)-4-(4-{4-[(4-{(S)-6-[2-(tert-butoxy)-2-oxoethyl]-2,3,9-trimethyl-6H-thieno[3,2-f][1,2,4]triazolo[4,3-a][1,4]diazepin-4-yl}benzamide)methyl]-1H-1,2,3-triazol-1-yl}phenyl)-2,3,9-trimethyl-6H-thieno[3,2-f][1,2,4]triazolo[4,3-a][1,4]diazepin-6-yl]acetate]	–	–	0.18 nM	–	–
